Assay [1] concerns CHO. In words: CHO cell viability loss, potency – luminescence, cytotoxicity control for TLR9-MyD88 binding inhibitor project, dose response (AID 588339).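 Further: CHO cells stably coexpressing TLR9 and MyD88 fusions from primary screen; compound exposure lasted 48 hours before viability readout.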 It counts as functional, cell-based, hamster. The note with it: Cricetulus griseus.
Assay [2] concerns the target Genome polyprotein (dengue virus type 2, UniProt P29990). The assay can be described thus: flavivirus cap methylation enzyme inhibition – biochemical, confirmation dose response, primary screen (AID 588689). It counts as functional.
The target of assay [3] is T1, Polyadenylate-binding protein 1 (Homo sapiens, UniProt P11940). The assay can be described thus: MLLE domain peptide-binding blockers, IC50 – biochemical, fluorescence polarization, FITC-PAM2 peptide, dose response (AID 602259). It counts as functional. The note with it: read-out: IC50_Mean. For orientation: In fluorescence polarisation assays a small probe gives low polarisation when free and higher when bound to something large.
T1 sequence (P11940 whole entry, the tested form may be a part): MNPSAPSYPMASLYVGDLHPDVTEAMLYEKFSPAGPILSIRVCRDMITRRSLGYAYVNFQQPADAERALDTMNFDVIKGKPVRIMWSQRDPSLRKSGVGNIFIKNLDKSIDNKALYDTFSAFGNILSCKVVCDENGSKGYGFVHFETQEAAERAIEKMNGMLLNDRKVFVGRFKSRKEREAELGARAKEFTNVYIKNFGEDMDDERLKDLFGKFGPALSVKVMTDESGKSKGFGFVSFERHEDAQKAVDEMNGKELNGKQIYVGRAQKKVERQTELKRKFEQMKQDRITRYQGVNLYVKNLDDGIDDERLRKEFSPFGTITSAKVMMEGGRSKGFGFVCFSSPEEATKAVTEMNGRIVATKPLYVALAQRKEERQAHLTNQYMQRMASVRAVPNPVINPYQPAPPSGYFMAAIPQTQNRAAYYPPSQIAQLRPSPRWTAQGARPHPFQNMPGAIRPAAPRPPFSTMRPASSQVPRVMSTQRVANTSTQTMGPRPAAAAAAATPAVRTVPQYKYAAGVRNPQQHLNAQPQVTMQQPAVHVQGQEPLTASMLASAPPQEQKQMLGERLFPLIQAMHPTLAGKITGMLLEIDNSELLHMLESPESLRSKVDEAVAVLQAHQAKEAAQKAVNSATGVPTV

Assay [4] concerns the target T1, Polyadenylate-binding protein 1. In words: MLLE binding blockers, Cy5 peptide tracer – biochemical, fluorescence polarization, Cy5-PAM2 peptide, secondary, miRNA deadenylation inhibitor project, dose response (AID 602260). It counts as functional. The following applies: read-out: IC50_Mean.
Assay [5] addresses T2, Hexokinase HKDC1 (Homo sapiens, UniProt Q2TB90).
T2 sequence (Q2TB90 whole entry): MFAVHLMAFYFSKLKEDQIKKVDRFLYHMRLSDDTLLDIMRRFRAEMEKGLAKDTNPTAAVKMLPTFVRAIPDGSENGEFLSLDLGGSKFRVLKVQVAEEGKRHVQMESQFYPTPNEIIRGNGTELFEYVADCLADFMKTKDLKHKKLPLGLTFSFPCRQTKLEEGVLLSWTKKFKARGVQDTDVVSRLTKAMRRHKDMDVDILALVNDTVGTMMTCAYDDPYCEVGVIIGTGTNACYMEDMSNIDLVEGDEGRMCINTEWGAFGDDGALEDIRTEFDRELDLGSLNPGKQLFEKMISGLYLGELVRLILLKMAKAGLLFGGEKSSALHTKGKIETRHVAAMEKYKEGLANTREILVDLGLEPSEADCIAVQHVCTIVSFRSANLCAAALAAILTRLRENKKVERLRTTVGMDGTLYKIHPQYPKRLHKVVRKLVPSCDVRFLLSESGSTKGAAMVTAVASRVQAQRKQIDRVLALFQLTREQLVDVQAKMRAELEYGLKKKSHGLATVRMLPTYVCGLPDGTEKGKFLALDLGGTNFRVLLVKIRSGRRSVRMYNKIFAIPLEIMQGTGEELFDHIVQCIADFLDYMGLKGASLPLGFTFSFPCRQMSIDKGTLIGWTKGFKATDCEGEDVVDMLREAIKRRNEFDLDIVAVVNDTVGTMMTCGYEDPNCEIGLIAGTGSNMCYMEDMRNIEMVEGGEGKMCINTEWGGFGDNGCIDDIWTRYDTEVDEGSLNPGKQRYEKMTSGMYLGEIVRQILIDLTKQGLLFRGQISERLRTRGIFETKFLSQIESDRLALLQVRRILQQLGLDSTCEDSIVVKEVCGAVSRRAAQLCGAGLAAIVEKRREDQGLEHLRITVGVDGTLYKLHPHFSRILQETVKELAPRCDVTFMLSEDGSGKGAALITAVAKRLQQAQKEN
In words: inhibition of HKDC1 glucose phosphorylation – biochemical, W721R variant, dose response (AID 504729). Type of assay: functional.

Assay [6] deals with Heat shock protein HSP 90-alpha (Homo sapiens, UniProt P07900). Type of assay: functional, organism-based.
Assay [7] addresses Beta Lactamase (Pseudomonas aeruginosa, UniProt Q932Y6). In words: BLA reporter interference, concentration series – BLA reporter cells, FRET fluorescence, artefact control for TLR9-MyD88 binding inhibitor project, dose response (AID 588341).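 Further: cell based assay in CHO-K1 cells stably expressing beta-lactamase.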 It counts as cell-based.
Assay [8] concerns the target T3, Rac GTPase-activating protein 1 (Homo sapiens, UniProt Q9H0H5).
T3 sequence (Q9H0H5 whole entry): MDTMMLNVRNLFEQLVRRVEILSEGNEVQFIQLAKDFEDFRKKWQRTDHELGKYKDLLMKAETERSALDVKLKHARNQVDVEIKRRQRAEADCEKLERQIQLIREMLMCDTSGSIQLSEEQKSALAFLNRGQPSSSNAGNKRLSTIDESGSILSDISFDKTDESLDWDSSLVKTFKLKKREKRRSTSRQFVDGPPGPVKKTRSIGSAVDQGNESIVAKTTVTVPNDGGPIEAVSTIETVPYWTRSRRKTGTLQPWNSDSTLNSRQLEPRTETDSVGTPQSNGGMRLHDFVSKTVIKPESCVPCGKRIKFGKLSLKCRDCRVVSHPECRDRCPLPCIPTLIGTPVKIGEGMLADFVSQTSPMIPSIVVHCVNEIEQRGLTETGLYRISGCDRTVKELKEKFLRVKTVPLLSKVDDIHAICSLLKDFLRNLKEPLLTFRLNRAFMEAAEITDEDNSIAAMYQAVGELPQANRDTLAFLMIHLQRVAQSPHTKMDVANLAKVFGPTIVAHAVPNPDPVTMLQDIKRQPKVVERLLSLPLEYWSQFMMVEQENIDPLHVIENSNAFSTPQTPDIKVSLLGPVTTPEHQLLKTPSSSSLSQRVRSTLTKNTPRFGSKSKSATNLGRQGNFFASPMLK
In words: blockers of MgcRacGAP-driven Rac1 GTP hydrolysis – biochemical, ADP Hunter fluorescence, primary and confirmatory, confirmation (AID 624330). Type of assay: functional.

The target of assay [9] is T4, Histone-lysine N-methyltransferase NSD2 (Homo sapiens, UniProt O96028).
T4 sequence (O96028 whole entry): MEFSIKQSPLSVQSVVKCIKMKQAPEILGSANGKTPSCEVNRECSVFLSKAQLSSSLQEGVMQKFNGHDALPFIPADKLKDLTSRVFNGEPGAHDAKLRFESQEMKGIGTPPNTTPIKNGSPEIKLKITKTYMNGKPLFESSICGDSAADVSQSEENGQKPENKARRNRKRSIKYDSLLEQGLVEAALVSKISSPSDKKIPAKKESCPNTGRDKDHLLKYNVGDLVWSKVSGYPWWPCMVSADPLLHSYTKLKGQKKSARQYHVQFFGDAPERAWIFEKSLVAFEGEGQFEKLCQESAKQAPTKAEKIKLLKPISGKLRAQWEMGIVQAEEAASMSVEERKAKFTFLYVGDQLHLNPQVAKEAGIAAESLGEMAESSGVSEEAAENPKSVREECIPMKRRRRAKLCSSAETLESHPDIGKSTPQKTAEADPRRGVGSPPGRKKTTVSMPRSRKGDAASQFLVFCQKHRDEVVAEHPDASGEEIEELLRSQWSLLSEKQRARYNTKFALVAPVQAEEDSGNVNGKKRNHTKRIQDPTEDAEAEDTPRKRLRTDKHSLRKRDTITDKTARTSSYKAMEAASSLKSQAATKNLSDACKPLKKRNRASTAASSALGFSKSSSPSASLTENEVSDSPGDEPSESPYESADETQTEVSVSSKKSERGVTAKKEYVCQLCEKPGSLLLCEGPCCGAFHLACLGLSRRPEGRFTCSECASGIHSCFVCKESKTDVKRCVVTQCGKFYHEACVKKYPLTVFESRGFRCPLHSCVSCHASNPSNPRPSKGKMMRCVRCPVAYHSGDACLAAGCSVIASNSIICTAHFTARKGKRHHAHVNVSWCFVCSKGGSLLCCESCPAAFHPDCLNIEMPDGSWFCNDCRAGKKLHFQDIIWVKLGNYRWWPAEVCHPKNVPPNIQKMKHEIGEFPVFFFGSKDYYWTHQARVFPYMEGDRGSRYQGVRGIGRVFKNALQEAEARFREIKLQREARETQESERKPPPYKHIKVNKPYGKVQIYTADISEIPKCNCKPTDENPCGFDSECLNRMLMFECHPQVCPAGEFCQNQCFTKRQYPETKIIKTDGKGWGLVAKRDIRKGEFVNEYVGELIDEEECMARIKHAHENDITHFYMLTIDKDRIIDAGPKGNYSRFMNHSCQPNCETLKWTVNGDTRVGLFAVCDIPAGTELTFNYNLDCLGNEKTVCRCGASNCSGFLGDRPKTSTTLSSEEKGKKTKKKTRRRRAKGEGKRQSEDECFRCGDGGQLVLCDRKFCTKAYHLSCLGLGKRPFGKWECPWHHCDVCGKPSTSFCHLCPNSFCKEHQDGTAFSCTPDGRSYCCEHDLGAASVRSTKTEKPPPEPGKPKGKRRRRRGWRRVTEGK
Type of assay: biochemical.

The target of assay [10] is Beta-galactosidase (Escherichia coli, UniProt Q8VNN2). The assay can be described thus: detection-enzyme interference by beta-gal modulators – biochemical, E. coli enzyme, set 3, artefact control for CCR6 antagonist project, dose response (AID 504712). Type of assay: functional.
The target in assay [11] is Glucose-6-phosphate 1-dehydrogenase (Homo sapiens, UniProt P11413). The assay can be described thus: inhibition of Homo sapiens G6PD, dose series – biochemical, fluorescence, selectivity assay for P. falciparum G6PD inhibitor project, dose response (AID 504792). It counts as functional.
Glucose-6-phosphate 1-dehydrogenase, sequence (P11413 whole entry): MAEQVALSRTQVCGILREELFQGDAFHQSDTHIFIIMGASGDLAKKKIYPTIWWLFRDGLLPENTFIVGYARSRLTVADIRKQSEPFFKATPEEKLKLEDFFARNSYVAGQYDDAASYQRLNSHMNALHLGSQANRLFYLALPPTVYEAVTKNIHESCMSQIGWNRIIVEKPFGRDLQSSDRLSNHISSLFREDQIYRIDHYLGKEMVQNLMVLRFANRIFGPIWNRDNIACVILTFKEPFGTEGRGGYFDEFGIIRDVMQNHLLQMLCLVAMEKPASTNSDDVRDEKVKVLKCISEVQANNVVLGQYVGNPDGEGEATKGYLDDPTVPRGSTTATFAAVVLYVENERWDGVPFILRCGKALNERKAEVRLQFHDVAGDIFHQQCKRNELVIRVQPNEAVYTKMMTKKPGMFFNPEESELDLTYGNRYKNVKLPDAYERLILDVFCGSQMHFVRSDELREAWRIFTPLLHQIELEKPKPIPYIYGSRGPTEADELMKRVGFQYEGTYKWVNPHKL
Assay [12] addresses Induced myeloid leukemia cell differentiation protein Mcl-1 (Homo sapiens, UniProt Q07820). It counts as functional.
For assay [13], the target named is DNA (cytosine-5)-methyltransferase 1 (Homo sapiens, UniProt P26358). In words: inhibition of DNA methylation by DNMT1 – biochemical, fluorescent molecular beacon, confirmation (AID 602386). Type of assay: functional.
In assay [14] the target is T5, Small ubiquitin-related modifier 1 (Homo sapiens, UniProt P63165). The assay can be described thus: SUMO1 protein interaction blockers, potency – biochemical, fluorescence polarization, uHTS hits, dose response (AID 624382). It counts as functional. The note with it: read-out: IC50_Mean.
T5 sequence (P63165 whole entry): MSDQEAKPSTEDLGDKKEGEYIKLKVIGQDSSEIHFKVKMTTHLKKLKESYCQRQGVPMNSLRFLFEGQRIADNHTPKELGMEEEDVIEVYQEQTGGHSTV
Assay [15] concerns the target T5, Small ubiquitin-related modifier 1. In words: SUMO1 protein-protein binding blockers, potency – biochemical, FRET, dose response (AID 624383). Type of assay: functional. The note with it: read-out: IC50_Mean.
For assay [16], the target named is NS3 (Hepatitis C virus, UniProt A3EZJ3). The assay can be described thus: PubChem AID 2173. Set-up: species or system Hepacivirus hominis.
The target of assay [17] is Albumin (Bos taurus, UniProt P02769). The assay can be described thus: Counterscreen for inhibitors of T-cell receptor (TCR)-CD3 interaction: Fluorescence-based biochemical high throughput dose response assay to identify inhibitors of T-cell receptor (TCR)-CD3 interaction using a TAMRA-labeled BSA probe. Type of assay: functional.
Albumin, sequence (P02769 whole entry): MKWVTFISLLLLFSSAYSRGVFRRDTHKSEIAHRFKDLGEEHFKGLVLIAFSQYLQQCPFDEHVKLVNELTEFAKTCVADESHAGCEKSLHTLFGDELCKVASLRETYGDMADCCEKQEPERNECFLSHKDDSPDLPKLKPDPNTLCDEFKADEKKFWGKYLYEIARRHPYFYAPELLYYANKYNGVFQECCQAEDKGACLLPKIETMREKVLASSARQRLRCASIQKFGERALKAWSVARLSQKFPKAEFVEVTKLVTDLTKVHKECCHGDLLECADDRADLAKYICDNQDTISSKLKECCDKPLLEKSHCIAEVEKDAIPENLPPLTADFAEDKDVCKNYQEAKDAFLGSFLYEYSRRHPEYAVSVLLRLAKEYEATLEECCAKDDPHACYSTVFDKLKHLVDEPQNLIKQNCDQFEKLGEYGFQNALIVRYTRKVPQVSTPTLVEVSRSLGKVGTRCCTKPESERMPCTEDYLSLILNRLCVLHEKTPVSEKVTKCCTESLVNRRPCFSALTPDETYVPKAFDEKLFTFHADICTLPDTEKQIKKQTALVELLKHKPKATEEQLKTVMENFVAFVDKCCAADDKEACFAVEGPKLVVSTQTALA
For assay [18], the target named is T6, Voltage-gated N-type calcium channel alpha-1B subunit/Amyloid beta A4 precursor protein-binding family A member 1 (Homo sapiens, UniProt Q00975+Q02410). In words: disruptors of Mint-PDZ/N-type channel peptide interaction – biochemical, HTRF, set 2, SAR follow-up (AID 434980). It counts as functional. A general note: In TR-FRET formats the signal depends on donor and acceptor labels being close together.
T6 sequence (Q00975 whole entry): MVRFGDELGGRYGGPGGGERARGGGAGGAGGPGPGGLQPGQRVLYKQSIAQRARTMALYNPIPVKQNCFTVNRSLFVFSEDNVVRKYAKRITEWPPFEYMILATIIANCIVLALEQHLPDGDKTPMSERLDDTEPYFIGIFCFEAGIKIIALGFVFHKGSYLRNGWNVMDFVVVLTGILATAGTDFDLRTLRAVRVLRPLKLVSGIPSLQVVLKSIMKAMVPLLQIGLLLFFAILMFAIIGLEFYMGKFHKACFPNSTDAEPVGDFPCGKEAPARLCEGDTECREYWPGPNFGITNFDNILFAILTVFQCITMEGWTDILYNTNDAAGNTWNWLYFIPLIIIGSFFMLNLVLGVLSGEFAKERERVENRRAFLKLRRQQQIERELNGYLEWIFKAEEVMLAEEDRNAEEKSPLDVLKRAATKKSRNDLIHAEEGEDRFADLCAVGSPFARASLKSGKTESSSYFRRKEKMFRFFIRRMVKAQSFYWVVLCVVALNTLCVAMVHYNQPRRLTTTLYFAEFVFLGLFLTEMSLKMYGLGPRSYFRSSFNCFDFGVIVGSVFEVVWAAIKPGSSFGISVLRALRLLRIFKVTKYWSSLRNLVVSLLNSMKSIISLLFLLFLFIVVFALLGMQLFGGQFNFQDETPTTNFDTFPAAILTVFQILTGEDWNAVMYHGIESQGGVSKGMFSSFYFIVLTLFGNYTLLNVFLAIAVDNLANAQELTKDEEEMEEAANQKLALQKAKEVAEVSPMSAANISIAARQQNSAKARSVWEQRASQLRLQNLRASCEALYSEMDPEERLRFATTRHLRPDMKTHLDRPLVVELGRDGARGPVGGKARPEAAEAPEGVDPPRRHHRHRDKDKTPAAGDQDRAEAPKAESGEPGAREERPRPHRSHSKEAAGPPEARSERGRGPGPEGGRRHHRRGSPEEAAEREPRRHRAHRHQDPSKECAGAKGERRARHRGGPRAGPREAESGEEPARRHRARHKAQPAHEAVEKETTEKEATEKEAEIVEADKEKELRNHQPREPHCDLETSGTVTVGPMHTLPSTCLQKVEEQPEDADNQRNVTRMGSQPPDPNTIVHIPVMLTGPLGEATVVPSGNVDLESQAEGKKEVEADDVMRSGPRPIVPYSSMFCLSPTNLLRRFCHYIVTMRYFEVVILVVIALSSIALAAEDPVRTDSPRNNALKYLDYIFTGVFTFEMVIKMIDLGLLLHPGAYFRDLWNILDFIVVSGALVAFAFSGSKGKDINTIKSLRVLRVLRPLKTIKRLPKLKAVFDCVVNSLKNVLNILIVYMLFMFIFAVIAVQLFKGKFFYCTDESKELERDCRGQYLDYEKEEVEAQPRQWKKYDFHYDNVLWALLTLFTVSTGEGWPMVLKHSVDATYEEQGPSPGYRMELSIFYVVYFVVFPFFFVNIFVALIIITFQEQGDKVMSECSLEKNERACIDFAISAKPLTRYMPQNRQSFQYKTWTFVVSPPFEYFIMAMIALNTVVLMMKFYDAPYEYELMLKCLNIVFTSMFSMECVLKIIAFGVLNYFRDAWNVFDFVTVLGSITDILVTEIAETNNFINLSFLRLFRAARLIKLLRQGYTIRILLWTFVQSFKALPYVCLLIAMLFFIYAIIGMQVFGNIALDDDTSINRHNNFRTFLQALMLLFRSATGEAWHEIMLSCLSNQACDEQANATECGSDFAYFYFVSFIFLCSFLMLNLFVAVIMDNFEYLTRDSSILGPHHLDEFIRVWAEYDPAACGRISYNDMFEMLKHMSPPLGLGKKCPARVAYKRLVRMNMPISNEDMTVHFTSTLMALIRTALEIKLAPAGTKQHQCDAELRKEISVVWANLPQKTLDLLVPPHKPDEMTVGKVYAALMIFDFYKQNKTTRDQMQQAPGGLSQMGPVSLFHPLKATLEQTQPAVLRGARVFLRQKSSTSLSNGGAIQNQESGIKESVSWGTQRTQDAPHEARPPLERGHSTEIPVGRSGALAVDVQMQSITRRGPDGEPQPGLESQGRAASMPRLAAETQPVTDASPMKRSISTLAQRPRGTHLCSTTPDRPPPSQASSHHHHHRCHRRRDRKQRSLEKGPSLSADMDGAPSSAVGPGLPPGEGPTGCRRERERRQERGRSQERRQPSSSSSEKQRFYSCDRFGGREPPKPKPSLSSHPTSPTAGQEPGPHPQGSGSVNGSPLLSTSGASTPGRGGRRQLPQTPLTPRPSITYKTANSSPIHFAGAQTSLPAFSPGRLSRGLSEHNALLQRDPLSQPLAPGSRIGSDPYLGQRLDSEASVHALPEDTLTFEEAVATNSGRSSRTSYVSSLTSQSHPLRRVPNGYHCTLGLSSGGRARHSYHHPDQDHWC
T6 sequence (Q02410 whole entry): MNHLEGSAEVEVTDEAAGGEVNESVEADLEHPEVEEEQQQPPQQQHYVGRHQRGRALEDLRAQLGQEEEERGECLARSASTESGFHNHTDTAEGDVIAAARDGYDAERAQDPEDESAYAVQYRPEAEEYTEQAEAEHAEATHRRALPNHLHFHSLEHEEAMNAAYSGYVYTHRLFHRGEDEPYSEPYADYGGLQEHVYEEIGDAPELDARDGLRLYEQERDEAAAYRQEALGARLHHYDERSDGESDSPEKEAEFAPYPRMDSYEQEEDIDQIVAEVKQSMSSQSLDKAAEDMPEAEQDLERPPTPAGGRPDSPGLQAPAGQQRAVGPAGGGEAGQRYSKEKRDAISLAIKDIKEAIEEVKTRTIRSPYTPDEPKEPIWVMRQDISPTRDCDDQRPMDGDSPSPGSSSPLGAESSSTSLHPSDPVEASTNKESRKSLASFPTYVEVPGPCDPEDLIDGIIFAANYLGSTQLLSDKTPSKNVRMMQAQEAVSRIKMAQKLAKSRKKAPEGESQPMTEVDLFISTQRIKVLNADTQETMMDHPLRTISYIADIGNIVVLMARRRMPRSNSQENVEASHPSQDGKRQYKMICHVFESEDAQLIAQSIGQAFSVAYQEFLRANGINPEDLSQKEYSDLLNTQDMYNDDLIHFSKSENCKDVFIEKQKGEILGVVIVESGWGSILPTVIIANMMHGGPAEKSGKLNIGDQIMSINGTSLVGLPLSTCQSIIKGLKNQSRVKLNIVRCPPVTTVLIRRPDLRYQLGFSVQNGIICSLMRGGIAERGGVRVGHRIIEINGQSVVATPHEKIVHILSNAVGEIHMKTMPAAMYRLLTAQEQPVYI

Assay [19] has as its target T6, Voltage-gated N-type calcium channel alpha-1B subunit/Amyloid beta A4 precursor protein-binding family A member 1. In words: disruptors of Mint-PDZ/N-type channel peptide interaction – biochemical, HTRF, SAR follow-up (AID 2489). It counts as functional.

From ChEMBL document CHEMBL1201862, “PubChem BioAssay data set” (2004) come the findings set out here.

SMILES strings stand for the structures. The source made the active and inactive calls.

Usually AC50 stands for the concentration giving half of the maximal activity seen. Turning to `O=C1C(Cl)=C(NCCc2ccccc2)C(=O)c2ccccc21`, the IC50 in assay [1] is 1.58 µM (active); in assay [2], 9.15 µM (active); in assay [3], > 66 µM (inactive); in [4], > 66 µM (inactive); in assay [5], 7.92 µM (active); in [7], 17.7 µM (inactive). Besides, the IC50 was 218 µM (active) in [8], > 66.6 µM (inactive) in [10] and 19.7 µM (active) in [11]. Besides, the values for the concentration at half-maximal activity (AC50) in assay [6] and in assay [9] were 3.38 µM (active) and 3.78 µM (active), respectively.
For the molecule `O=C(O)c1ccccc1/C=N/NC(=O)c1cc(-c2ccco2)nc2ccccc12`, the IC50 in assay [12] was 2.54 µM (active); in assay [13] it was 5.4 µM (active); in assay [14] it was > 66.6 µM (inactive); in assay [15], 9.51 µM (active); in [16], 7.35 µM (active); in assay [17] it was > 94.1 µM (inactive).
As for `COC(=O)c1cc(N2C(=O)C3C(C2=O)C2(C)C=CC3(C)O2)ccc1Cl` (centres undefined), the IC50 in [18] and in [19] was > 56.8 µM (inactive) in each case.
